Reference: US10213412B2, “Modulators of CA2+ release-activated CA2+ (CRAC) channels and pharmaceutical uses thereof” (Vivreon Biosciences, LLC, priority 2015, dated 2019)
Read-outs that look alike come from different tables or passages of the source.

Assays:
[1] = test system: Ca^2+ influx in murine cerebellum CRL-2540 cells (mouse microglia); experiment: Ca^2+ signaling assay in microglia activated with thapsigargin (Fluo-4); type: cell-based
Experimental: (§1) Compound 2 was screened for inhibition of Ca^2+ signaling by examining the intracellular Ca^2+ response in the presence of Compound 2 (FIG. 5). First, the murine cerebellum CRL-2540 cells, an immortalized line of mouse microglia, were loaded with the 2 μM of the Ca^2+ indicator dye, Fluo-4, to allow for detection of Ca^2+ influx. CRL-2540 cells were then cultured with Compound 2 and activated with 2 μM thapsigargin to induce Ca^2+ influx. Immediately after activation, Ca^2+ influx was determined by measuring CRL-2540 fluorescence using a flow cytometer. Maximal Ca^2+ influx occurred with a 0.52 fold increase in mean Fluo-4 fluorescence intensity compared to an unstimulated control.

[2] = test system: primary human T cells; experiment: Primary human T cell proliferation assay (CFSE dilution); type: cell-based; settings: 72 hours
Experimental: Compound 2 was screened for inhibition of primary human T cell proliferation by quantifying cellular divisions in the presence of Compound 2 (FIG. 3). First, a 96-well plate was coated with 4 μg/mL anti-CD3 antibody (clone: OKT3) in phosphate buffered saline overnight at 4 degrees Celsius. Primary human T cells were then isolated from the peripheral blood of a healthy, consenting donor using an antibody-based human T cell enrichment protocol. Human T cells were then stained with 1.75 μM of carboxyfluorescein succinimidyl ester, to allow for detection of cellular proliferation. Human T cells were then cultured with Compound 2 and activated with immobilized anti-CD3 and 1 μg/mL soluble anti-CD28 (clone: CD28.2) antibodies and 0.2 ng/mL recombinant human IL-2 to induce cellular proliferation through the NFAT and NF-κB transcription factor pathways. Proliferation was assayed through flow cytometric analysis of carboxyfluorescein succinimidyl ester dilution after 72 hours in standard culture conditions. Maximal proliferation occurred with a 3.9 fold increase in activation index compared to an unstimulated control.

[3] = test system: Human Jurkat T cells; experiment: Cancer cell viability assay, Jurkat; type: cell-based; settings: 120 hours, flow cytometric light scatter
Experimental: (§2) Compound 2 was screened for inhibition of cancer cell survival by quantifying cellular death in the presence of Compound 2 (FIG. 4). Human Jurkat T cells (▪), an immortalized line of human acute T cell lymphoblastic leukemia; Ramos B cells (•), an immortalized line of human Burkitt's lymphoma; and primary human T cells (▴) isolated from the peripheral blood of a healthy, consenting donor were cultured in the presence Compound 2 to test for cellular viability and cell death. Cells were cultured in standard culture conditions, and primary human T cells were also activated with 4 μg/mL immobilized anti-CD3 (clone: OKT3) and 1 μg/mL soluble anti-CD28 (clone: CD28.2) antibodies and 0.2 ng/mL recombinant human IL-2. Cell viability was assayed through flow cytometric analysis of cellular light scatter following 72 hours for primary human or 120 hours for Jurkat and Ramos in standard culture conditions. Viable cell percentage was analyzed as the percent decrease of viable cells compared to a control well with no Compound 2 using a standard flow cytometry lymphocyte analysis gate of forward and side scatter.

[4] = test system: Ramos B cells; experiment: Cancer cell viability assay, Ramos; type: cell-based, human; settings: 120 hours, flow cytometric light scatter
Experimental: as §2

[5] = test system: Ca^2+ influx in human Jurkat T cells; experiment: Ca^2+ signaling assay in Jurkat T cells activated with PHA-P (Fluo-4, flow cytometer); type: cell-based
Experimental: as §1, with “2).” for “5).”, “human Jurkat T” for “murine cerebellum CRL-2540”, “human acute T cell lymphoblastic leukemia,” for “mouse microglia,”, “Jurkat” for “CRL-2540”, “Phytohemagglutinin PHA-P” for “2 μM thapsigargin”, “2.9” for “0.52”

[6] = test system: primary human T cells; experiment: Cell viability assay, primary human T cells; type: cell-based; settings: primary human T cells from a healthy donor, activated, 72 hours
Experimental: as §2

[7] = biological target: T1, recombinant human Orai1 and recombinant human STIM1 (Homo sapiens, UniProt Q96D31); experiment: Ca^2+ signaling assay in HEK293 cells transfected with Orai1 and STIM1 (Fura-2); type: cell-based; settings: HEK293 transfected with Orai1/STIM1, 10 μM Compound 1, single cell Fura-2 fluorescence
T1 construct: expressed in transfected cells; host or cells: human embryonic kidney 293 cells
Experimental: FIG. 8 depicts Compound 1 as a modulator of store-operated Ca^2+ (SOC) channels. The white rectangle represents a 2 mM external Ca^2+ concentration solution, the hashed rectangle represents a 0 mM external Ca2+ concentration solution, the slashed rectangle represents a 0 mM external Ca^2+ concentration solution with 2 μM thapsigargin, the grey rectangle represents 10 μM Compound 1 in a 2 mM external Ca^2+ concentration solution, and the black rectangle represents […] 2-aminoethoxydiphenyl borate in a 2 mM external Ca^2+ concentration solution. Cell #1 and Cell #2 represent two separate human embryonic kidney 293 cells successfully transfected with recombinant human Orai1 and recombinant human STIM1.
Compound 1 was screened for inhibition of Ca^2+ signaling by examining the intracellular Ca^2+ response in the presence of Compound 1 (FIG. 8). First, human embryonic kidney 293 cells were transfected by lipofectamine with recombinant human Orai1 and recombinant human STIM1. Recombinant human Orai1 was genetically tagged with enhanced green fluorescent protein to label successfully transfected cells. Cells were plated on coverslips and loaded with 2 μM of the Ca^2+ indicator dye, Fura-2, to allow for detection of intracellular Ca^2+ concentration. Cellular fluorescence was determined by alternating fluorescent excitation at 340 and 380 nanometers.

[8] = In vivo pharmacokinetics in rat; set-up: species or system Sprague Dawley rat
Experimental: Compound 1 was administered p.o. (▪) or i.v. (•) to a nine week old male Sprague Dawley rat (FIG. 6). For survival blood collection, 250-350 μL blood samples were collected via jugular vein (JUGVEIN) cannula at proposed time points per study protocol and recorded. Blood was collected pre-dose and at 15 & 30 min, 1, 2, 4, 12, 24 & 48 hr after Compound 1 administration. Blood was collected into lithium heparin tubes for plasma collection. Calibration standards and study samples were processed for LC/MS/MS analysis by precipitating 40 μL of each sample with two volumes of ice cold Internal Standard Solution (acetonitrile containing 50 ng/mL of dextromethorphan, 5 ng/mL diphenhydramine and 125 ng/mL diclofenac). The precipitated samples were centrifuged at 6100 g for 30 minutes. Following centrifugation, an aliquot of each supernatant was transferred to an autosampler plate and diluted with an equal volume of 0.2% formic acid in water. Processed study samples were analyzed using LC/MS/MS.

[9] = Concentrations of Compound 1 in mouse plasma and brain after s.c. administration; type: in vivo; settings: C57/BL6 mice
Experimental: Compound 1 was administered s.c. to C57/BL6 mice and plasma and brain samples were processed and analyzed using standard bioanalytical protocols. Three mice were sacrificed at time points: 15 min, 1 hr and 4 hr. Blood was collected into lithium heparin tubes for plasma collection. Brain samples were homogenized prior to extraction using a FastPrep-24 tissue homogenizer. Plasma and brain homogenates were extracted by protein precipitation with acetonitrile containing verapamil as internal standard (IS). After vortexing for 10 min, samples were transferred to a 96 well filter plate and filtered using a centrifuge. Filtrates were analyzed by LC/MS/MS. The compounds were quantified with software using calibration curves. Compound 1 plasma (▪) and brain (•) concentrations are presented.

[10] = test system: experimental autoimmune encephalomyelitis; experiment: in vivo; type: in vivo, C57/Bl6 mice
[11] = in vivo; type: in vivo, C57/Bl6 mice; settings: C57/Bl6, mouse, in vivo, ip, 5 mg/kg
[12] = test system: MDR1; experiment: MDCK-MDR1 permeability assay; type: in vitro ADME, canine; settings: dog
Experimental: Compound 1 was evaluated for permeability across polarized Madin-Darby canine kidney-multidrug resistance protein 1 (MDCK-MDR1) epithelial monolayers. MDCK-MDR1 cells grown in tissue culture flasks were trypsinized, suspended in medium, and the suspensions were applied to wells of a Millipore 96 well Caco-2 plate (FIG. 7). The cells were allowed to grow and differentiate for five days and confluence was confirmed. For Apical to Basolateral (A→B) permeability, Compound 1 was added to the apical (A) side and amount of permeation is determined on the basolateral (B) side; for Basolateral to Apical (B→A) permeability, the Compound 1 was added to the B side and the amount of permeation was determined on the A side and analyzed by LC/MS/MS.

[13] = male, Sprague Dawley, plasma, iv, 10000 ug/kg
[14] = male, Sprague Dawley, plasma, po, 10000 ug/kg

T1 sequence (Q96D31 whole entry): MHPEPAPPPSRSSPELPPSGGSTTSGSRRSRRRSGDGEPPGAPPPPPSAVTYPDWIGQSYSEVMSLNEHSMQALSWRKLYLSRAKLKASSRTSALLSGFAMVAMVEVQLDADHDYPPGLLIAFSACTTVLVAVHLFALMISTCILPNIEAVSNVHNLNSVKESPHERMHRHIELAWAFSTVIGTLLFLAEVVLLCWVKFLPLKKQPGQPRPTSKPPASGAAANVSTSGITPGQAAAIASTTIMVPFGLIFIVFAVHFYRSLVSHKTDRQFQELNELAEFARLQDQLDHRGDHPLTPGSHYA

CC(C)(C)c1cc(CCC(=O)c2[nH]c(Cl)c(Cl)c2Cl)cc(C(C)(C)C)c1O [Compound 2, 3-(3,5-di-tert-butyl-4-hydroxyphenyl)-1-(3,4,5-trichloro-1H-pyrrol-2-yl)propan-1-one]
Maximal inhibition of Ca^2+ influx, fold increase compared to an unstimulated control ([1]; CRL-2540, thapsigargin, maximal influx 0.52 fold): 0.19 fold
IC50 ([1]; Mus musculus, CRL-2540 microglia, 2 μM thapsigargin, Fluo-4, read-out: IC50 of inhibition of Ca^2+ influx): 10.9 µM
Maximal inhibition of proliferation, fold increase in activation index compared to an unstimulated control ([2]; maximal proliferation 3.9 fold): 0.91 fold
IC50 ([2]; Homo sapiens, T-cell, anti-CD3/anti-CD28/IL-2 activation, read-out: IC50 of inhibition of primary human T cell proliferation): 0.671 µM
Cell viability in the presence of compound [3]: decreased
Cell viability in the presence of compound [4]: decreased
IC50 ([5]; Homo sapiens, PHA-P activation, Fluo-4 fluorescence, read-out: IC50 of inhibition of Ca^2+ influx): 3.78 µM
Maximal inhibition of Ca^2+ influx, fold increase compared to an unstimulated control ([5]; PHA-P, maximal influx 2.9 fold): 0.35 fold
Cell viability in the presence of compound [6]: did not decrease

CC(C)(C)c1cc(CCC(=O)c2ccc[nH]2)cc(C(C)(C)C)c1O [Compound 1, 3-(3,5-di-tert-butyl-4-hydroxyphenyl)-1-(1H-pyrrol-2-yl)propan-1-one]
Modulation of store-operated Ca^2+ (SOC) channels [7]: modulates store-operated Ca^2+ (SOC) channels
AUC(0-inf) [8, 13]: 706 ng·h/mL
AUC(0-t) [8, 13]: 694 ng·h/mL
Cmax [8, 13]: 837 ng/mL
MRT inf [8, 13]: 1.9 h
Tmax [8, 13]: 0.25 h
clearance [8, 13]: 236 mL/min/kg
half-life ([8]; male, Sprague Dawley, plasma, iv, 10000 ug/kg, i.v., 10000 μg/kg, read-out: Terminal t½ (converted)): 2.64 h
Vd ([8]; male, Sprague Dawley, plasma, iv, 10000 ug/kg, i.v., 10000 μg/kg, read-out: VSS): 26.9 L/kg
AUC(0-inf) [8, 14]: 747 ng·h/mL
AUC(0-t) [8, 14]: 679 ng·h/mL
Cmax [8, 14]: 126 ng/mL
Tmax [8, 14]: 2 h
bioavailability [8, 14]: 106%
half-life ([8]; male, Sprague Dawley, plasma, po, 10000 ug/kg, p.o., 10000 μg/kg, read-out: T½ (converted)): 3.27 h
Animal body weight and clinical observations ([8]; p.o. or i.v., 10000 μg/kg): appeared normal
Animal body weight and clinical observations [9]: appeared normal
Recovery of animals in the EAE model ([10]; 5 mg/kg i.p. daily starting on day −1): enhanced recovery
Neuroprotection (clinical score) compared to vehicle-treated mice ([10]; 5 mg/kg i.p. daily, p<0.05): significant neuroprotection
concentration at 1 h ([11]; Compound level in the brain): 38 ± 4 nM
concentration at 1 h ([11]; Compound level in the plasma): 23.3 ± 3.1 nM
efflux ratio [12]: 1.6
Papp A→B ([12]; Apical to Basolateral): 1 ×10⁻⁶ cm/s
Papp B→A ([12]; Basolateral to Apical): 1.6 ×10⁻⁶ cm/s
